17 compounds from ChEMBL document CHEMBL1148657, “Diels-Alder/thiol-olefin co-oxygenation approach to antimalarials incorporating the 2,3-dioxabicyclo[3.3.1]nonane pharmacophore” (Bioorg Med Chem Lett, 2006) can be followed below.

The first assay deals with Plasmodium falciparum. Briefly: Antimalarial activity against Plasmodium falciparum NF54. It counts as functional, organism-based.
Conditions: not given
Broadly, the IC50 is the midpoint of a concentration-inhibition curve. A low value points to higher potency. On to `C[C@@H]1CC[C@H]2[C@@H](C)C(=O)O[C@@H]3O[C@@]4(C)CC[C@@H]1[C@]32OO4` [ARTEMISININ], for which half-maximal inhibition (IC50) was put at 8.9 nM.
As for `CC1(OCc2ccccc2)CCC2CC1OO[C@@]2(C)CS(=O)(=O)c1ccccc1` (stereo partly drawn), the midpoint of inhibition, the IC50, lay at 6.5 nM. This IC50 and that of the compound before are within 1.5-fold of each other.

The test system of a further assay is Plasmodium falciparum. Briefly: Antimalarial activity against chloroquine-resistant Plasmodium falciparum K1. It counts as functional, organism-based.
Conditions: not given
As to `CC(=O)OC1(C)CCC2CC1OO[C@]2(/C=C\c1ccccc1)c1ccccc1` (stereo partly drawn), the IC50 turned out to be 23 nM. In other words, the double-digit nanomolar range.

The same assay, now with this note: Plasmodium falciparum, K1.
In turn, `CC(=O)OC1(C)CCC2CC1OO[C@@]2(CSc1ccccc1)c1ccccc1` (stereo partly drawn) showed a half-inhibitory concentration (IC50) of 124 nM.
For the compound `CC1(O)CCC2CC1OO[C@@]2(CSc1ccccc1)c1ccccc1` (stereo partly drawn), it took 81 nM to reach half-maximal inhibition (IC50).
The same measure, in the same setting: the value for `O=C(CS(=O)(=O)c1ccccc1)c1ccccc1` was 1000 nM.
The same measure, in the same setting: the value for `CC1(O)CCC2CC1OO[C@]2(CS(=O)(=O)c1ccccc1)c1ccccc1` (stereo partly drawn) was 230 nM; that for `CC(=O)OC1(C)CCC2CC1OO[C@]2(/C=C\c1ccccc1)c1ccccc1` (stereo partly drawn) was 34 nM.
The same measure, in the same setting: to `CC1(O)CCC2CC1OO[C@@]2(CS(=O)(=O)c1ccc(Cl)cc1)c1ccccc1` (stereo partly drawn) belongs 107 nM; to `CC(=O)OC1(C)CCC2CC1OO[C@]2(CSc1ccccc1)c1ccccc1` (stereo partly drawn), 164 nM.
In turn, `CC1(O)CCC2CC1OO[C@]2(CSc1ccccc1)c1ccccc1` (stereo partly drawn) showed an IC50 of 298 nM. Compared with the last compound, the IC50 is about 1.8-fold higher.
The same measure, in the same setting: to `CC1(O)CCC2CC1OO[C@@]2(CS(=O)(=O)c1ccccc1)c1ccccc1` (stereo partly drawn) belongs 92 nM.
Still for that read-out and setting: to `CC(=O)OC1(C)CCC2CC1OO[C@]2(CS(=O)(=O)c1ccccc1)c1ccccc1` (stereo partly drawn) belongs 72 nM; to `CC1(O)CCC2CC1OO[C@]2(CSc1ccc(Cl)cc1)c1ccccc1` (stereo partly drawn), 247 nM; to `CC1(O)CCC2CC1OO[C@@]2(CSc1ccc(Cl)cc1)c1ccccc1` (stereo partly drawn), 541 nM.
For the compound `C[C@@H]1C(=O)C[C@H]2C[C@@H]1OO[C@@]2(C)/C=C\c1ccc(C(F)(F)F)cc1C(F)(F)F` [ARTEFLENE], the IC50 amounted to 76 nM. This IC50 lies about 7.1-fold lower than the previous one.
Regarding `CC(=O)OC1(C)CCC2CC1OO[C@@]2(CS(=O)(=O)c1ccccc1)c1ccccc1` (stereo partly drawn), the half-inhibitory concentration (IC50) is 42 nM.
Take `CC1(O)CCC2CC1OO[C@]2(CS(=O)(=O)c1ccc(Cl)cc1)c1ccccc1` (stereo partly drawn): it took 225 nM to reach half-maximal inhibition (IC50).
